Assay results taken from patent publication US20050107353A1, “Methods of treating lower urinary tract disorders using losigamone” (Dynogen Pharmaceuticals, Inc., priority 2003, published 2005).
Entries after “also recorded” stand apart in the source; their conditions may differ.

Key:
[1] = tested on: activity dependent sodium currents in bladder DRG neurons; assay: Use-dependent effect on sodium currents in bladder DRG neurons, slow versus fast stimulation; type: cell-based, rat; conditions: 100 μM, steps from −50 to 0 mV, three neurons
Method: Labeling of bladder afferent neurons: Adult female Sprague-Dawley rats (150-300 g) were deeply anesthetized with pentobarbital anesthesia and placed on isoflurane maintenance anesthesia. A ventral midline incision was made through the abdominal skin and musculature, exposing the urinary bladder. Five injections of the fluorescent dye Di-I (5 μl each of 25 mg/ml Di-I in DMSO) or Fast Blue (4% w/v) were made into the bladder smooth muscle wall to label primary afferent fibers innervating the bladder. The area was rinsed with sterile saline to eliminate nonspecific spread of dye, and the incision was closed. Rats recovered for 5-12 days to allow for transport of fluorescent dye from distal terminals to the cell somata of dorsal root ganglion (DRG) neurons. Labeled neurons were identified in vitro using fluorescence optics. […]
Sodium currents were recorded from DRG neurons using standard electrophysiologic protocols. […] Currents were recorded using a patch-clamp amplifier and digitized at 3-10 kHz for acquisition. Neuronal input resistance and membrane capacitance were determined from the amplitude and kinetics of the current response to a voltage pulse from a holding potential of −50 mV. […] For all cell types, baseline responses were recorded for a minimum of 10 min to ensure that the kinetics of the response was stable. […]

[2] = tested on: acetic acid-induced reduction of bladder capacity; assay: Dilute acetic acid model: bladder capacity by filling cystometry during continuous intravesical acetic acid irritation; type: in vivo, rat; conditions: intraduodenal; for effect on bladder capacity (reversal of acetic acid-induced reduction): increasing doses, rats during continuous irritation
Excerpt: The objective of the current study was to determine the effect of TTX-R sodium channel modulators or use dependent sodium channel modulators on the ability to reverse the reduction in bladder capacity seen following continuous infusion of dilute acetic acid, a commonly used model of lower urinary tract disorders including overactive bladder.
Animal Preparation: Female rats (250-275 g BW) were anesthetized with urethane (1.2 g/kg) and a saline-filled catheter (PE-50) was inserted into either the jugular vein for intravenous (i.v.; saline vehicle) or the proximal duodenum for intraduodenal (i.d.; distilled water or 10% Tween 80 in saline as vehicle) drug administration. Via a midline lower abdominal incision, a flared-tipped PE 50 catheter was inserted into the bladder dome for bladder filling and pressure recording and secured by ligation. The abdominal cavity was moistened with saline and closed by covering with a thin plastic sheet in order to maintain access to the bladder for emptying purposes. Fine silver or stainless steel wire electrodes were inserted into the external urethral sphincter (EUS) percutaneously for electromyography (EMG).
Experimental Design: Saline was continuously infused at a rate of 0.055 ml/min via the bladder filling catheter for ≧60 minutes to obtain a baseline of lower urinary tract activity (continuous cystometry; CMG). Following the control period, a 0.25% acetic acid solution in saline was infused into the bladder at the same flow rate to induce bladder irritation. Following 30 minutes of AA infusion, 3 vehicle injections were made at 20 minute intervals to determine vehicle effects, if any. Subsequently, increasing doses (2-5) of Na^+ channel blocking compound were administered intravenously or intraduodenaly at half-log order increments at 30 or 60 minute intervals in order to construct a cumulative dose-response relationship. At the end of the control saline cystometry period, the third vehicle, and 20-50 minutes following each subsequent treatment, the infusion pump was stopped, the bladder was emptied by fluid withdrawal via the infusion catheter and a single filling cystometrogram was performed at the same flow rate in order to determine changes in bladder capacity caused by the irritation protocol and subsequent intravenous or intraduodenal drug administration.
Data were analyzed by non-parametric ANOVA for repeated measures (Friedman Test) with Dunn's Multiple Comparison test. All comparisons were made from the last vehicle measurement (AA/Veh 3) or the lowest dose of drug. P<0.050 was considered significant.

[3] = molecular target: T1, TTX-R sodium currents in bladder afferent neurons (Rattus norvegicus, UniProt Q62968); assay: Bladder sensory neuron sodium channel current model: whole cell patch-clamp of TTX-R sodium currents; type: cell-based; conditions: 30 μM bath application, 7 minute, holding potential −70 mV, pulse to +10 mV
T1 construct: Whole cell patch-clamp recordings were obtained from dye-labeled DRG neurons; endogenous in cells; host or cells: primary dissociated L6/S1 dorsal root ganglion neurons of Sprague-Dawley rats, dye-labelled bladder afferents
Method: Labeling of bladder afferent neurons: Adult female Sprague-Dawley rats (150-300 g) were deeply anesthetized with pentobarbital anesthesia and placed on isoflurane maintenance anesthesia. A ventral midline incision was made through the abdominal skin and musculature, exposing the urinary bladder. Five injections of the fluorescent dye Di-I (5 μl each of 25 mg/ml Di-I in DMSO) or Fast Blue (4% w/v) were made into the bladder smooth muscle wall to label primary afferent fibers innervating the bladder. The area was rinsed with sterile saline to eliminate nonspecific spread of dye, and the incision was closed. Rats recovered for 5-12 days to allow for transport of fluorescent dye from distal terminals to the cell somata of dorsal root ganglion (DRG) neurons. Labeled neurons were identified in vitro using fluorescence optics.
Neuronal cultures: Di-I injected rats were euthanized with pentobarbital anesthesia. Lumbar (L6) and sacral (S1) DRG were dissected from the vertebral column and placed in Dulbecco's modified Eagles medium (DMEM) containing 0.3% collagenase B for 60 min at 37° C. The cell solution was exchanged for a 0.25% trypsin in calcium/magnesium-free Dulbecco's phosphate-buffered saline solution, and further digested for 30 min at 37° C. Following a wash in fresh DMEM, ganglia were dissociated by a series of triturations using fire-polished Pasteur pipettes. DRG cells were plated on polylysine-treated glass coverslips. Cells were plated at a density of 0.5 DRG per coverslip in 1 ml DMEM supplemented with 10% FBS, NGF, and 100 U/ml penicillin/streptomycin. All experimental procedures involving rats were conducted under a protocol approved by an Institutional Animal Care and Use Committee. Small variations in the concentrations of reagents, incubation times, etc. may occur and are expected to give similar results.
In most experiments, neurons were incubated in culture medium containing the FITC-labeled lectin BSI-B4 (IB4, […]) at 37° C. for 5 min before recording. The coverslip was washed with extracellular recording solution for 1 min before being placed in a recording chamber mounted on the stage of an inverted microscope equipped with fluorescence optics.
Electrophysiology: Electrophysiologic evaluation of neurons occurred within 4-48 h of plating. Whole cell patch-clamp recordings were obtained from dye-labeled DRG neurons. Recordings were obtained in an extracellular recording solution (pH 7.4, 295-320 mosM) consisting of (in mM) 140 NaCl, 3 KCl, 1 CaCl2, 1 MgCl2, 0.1 CdCl2, 10 HEPES, and 10 glucose. Patch-clamp electrodes were pulled from borosilicate glass and fire polished to 2-6 MOhm tip resistance. The internal pipette recording solution (pH 7.3, 290-300 mosM) consisted of (in mM) 140 CsCl, 10 NaCl, 1 EGTA, and 10 HEPES. Tetrodotoxin (TTX, 0.3 uM) was included in the extracellular solution to block TTX-sensitive sodium currents. Variations in the concentrations and types of reagents used for solutions may occur and are expected to give similar results.
Sodium currents were recorded from DRG neurons using standard electrophysiologic protocols. Neurons were typically voltage-clamped at −50 mV. Currents were recorded using a patch-clamp amplifier and digitized at 3-10 kHz for acquisition. Neuronal input resistance and membrane capacitance were determined from the amplitude and kinetics of the current response to a voltage pulse from a holding potential of −50 mV. Series resistance was compensated 75-95% for all recordings. Leak currents were cancelled online using a standard P/4 protocol. Depolarizing steps from −90, −70, or −50 mV to 0 mV were delivered every 5 or 30 sec during drug application to determine the effects of drugs on sodium currents. For all cell types, baseline responses were recorded for a minimum of 10 min to ensure that the kinetics of the response was stable. A wash out or recovery period usually followed the drug application period. […]

T1 sequence (Q62968 whole entry): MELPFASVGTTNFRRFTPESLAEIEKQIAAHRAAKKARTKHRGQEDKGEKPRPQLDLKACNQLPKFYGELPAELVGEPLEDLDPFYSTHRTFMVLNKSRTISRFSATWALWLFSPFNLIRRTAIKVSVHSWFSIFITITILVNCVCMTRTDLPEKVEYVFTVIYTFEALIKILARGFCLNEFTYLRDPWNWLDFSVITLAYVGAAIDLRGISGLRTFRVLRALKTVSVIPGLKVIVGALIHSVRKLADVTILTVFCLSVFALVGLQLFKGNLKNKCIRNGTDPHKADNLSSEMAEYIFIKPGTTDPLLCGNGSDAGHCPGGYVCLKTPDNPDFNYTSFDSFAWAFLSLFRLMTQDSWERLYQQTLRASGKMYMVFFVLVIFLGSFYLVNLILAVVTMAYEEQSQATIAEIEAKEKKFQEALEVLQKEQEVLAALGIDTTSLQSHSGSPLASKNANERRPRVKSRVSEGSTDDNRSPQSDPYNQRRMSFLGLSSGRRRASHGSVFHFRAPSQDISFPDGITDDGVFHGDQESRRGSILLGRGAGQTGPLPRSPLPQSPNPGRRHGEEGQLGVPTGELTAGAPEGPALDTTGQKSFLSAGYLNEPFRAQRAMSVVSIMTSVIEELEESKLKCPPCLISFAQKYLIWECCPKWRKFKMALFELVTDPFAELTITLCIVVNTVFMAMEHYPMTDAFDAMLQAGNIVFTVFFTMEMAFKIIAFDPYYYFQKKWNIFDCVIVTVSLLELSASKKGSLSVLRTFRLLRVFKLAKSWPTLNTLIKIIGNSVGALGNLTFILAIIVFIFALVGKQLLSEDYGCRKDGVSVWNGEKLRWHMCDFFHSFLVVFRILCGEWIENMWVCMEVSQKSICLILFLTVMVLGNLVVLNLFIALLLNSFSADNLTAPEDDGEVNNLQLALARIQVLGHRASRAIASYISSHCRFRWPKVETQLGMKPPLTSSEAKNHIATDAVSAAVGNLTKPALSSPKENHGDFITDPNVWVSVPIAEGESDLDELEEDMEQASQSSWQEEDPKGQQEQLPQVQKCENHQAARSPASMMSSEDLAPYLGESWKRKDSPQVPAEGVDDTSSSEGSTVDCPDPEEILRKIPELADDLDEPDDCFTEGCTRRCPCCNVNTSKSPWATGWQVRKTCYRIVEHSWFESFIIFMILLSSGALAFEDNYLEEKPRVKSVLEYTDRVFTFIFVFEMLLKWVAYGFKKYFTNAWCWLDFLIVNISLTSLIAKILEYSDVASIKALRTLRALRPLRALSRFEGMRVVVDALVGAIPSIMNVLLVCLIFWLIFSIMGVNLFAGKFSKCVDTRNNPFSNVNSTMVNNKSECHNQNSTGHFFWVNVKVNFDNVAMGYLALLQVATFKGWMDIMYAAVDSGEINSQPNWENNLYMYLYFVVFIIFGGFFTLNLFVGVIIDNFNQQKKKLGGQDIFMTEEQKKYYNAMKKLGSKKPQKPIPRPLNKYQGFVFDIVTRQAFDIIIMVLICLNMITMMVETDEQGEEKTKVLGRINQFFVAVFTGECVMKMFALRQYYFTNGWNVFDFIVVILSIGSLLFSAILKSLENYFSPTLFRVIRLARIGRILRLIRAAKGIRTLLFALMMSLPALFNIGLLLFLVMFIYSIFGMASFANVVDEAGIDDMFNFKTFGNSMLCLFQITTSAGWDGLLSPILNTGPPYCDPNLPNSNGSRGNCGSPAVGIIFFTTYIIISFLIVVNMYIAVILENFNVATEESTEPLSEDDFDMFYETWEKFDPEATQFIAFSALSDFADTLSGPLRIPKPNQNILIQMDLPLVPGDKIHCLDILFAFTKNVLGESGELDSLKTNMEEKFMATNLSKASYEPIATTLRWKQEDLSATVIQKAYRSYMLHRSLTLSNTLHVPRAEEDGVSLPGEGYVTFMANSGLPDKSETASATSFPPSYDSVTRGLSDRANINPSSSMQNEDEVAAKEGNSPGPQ

SMILES	peak sodium current amplitude, fast (17 Hz) versus slow (0.2 Hz) stimulation [1]	post-test: reversal of bladder capacity reduction ([2]; 100 mg/kg dose, rats)	effect on bladder capacity (reversal of acetic acid-induced reduction) [2]	effect on bladder capacity (reversal of acetic acid-induced reduction) ([2]; listed as topiramate)	effect on inward TTX-R sodium current [3]
Nc1nnc(-c2cccc(Cl)c2Cl)c(N)n1 [Lamotrigine, 6-(2,3-Dichlorophenyl)-1,2,4-triazine-3,5-diamine]	decreased to a greater extent under fast stimulation conditions				
CC1(C)O[C@@H]2[C@@H](CO[C@@]3(COS(N)(=O)=O)OC(C)(C)O[C@@H]23)O1 [Topiramate, 2,3:4,5-Bis-O-(1-methylethylidene)-1-O-sulfamoyl-beta-D-fructopyranose]		statistically significant reversal of bladder capacity reduction	capable of partially reversing the reduction in bladder capacity caused by acetic acid in a dose-dependent fashion; also recorded: dose-dependent and statistically significant reversal	dose-dependent, statistically significant increases in bladder capacity	blocked the current
